# Test results as given in patent US20260265771A1, “METHODS OF INCREASING THE REGENERATION EFFICIENCY IN PLANTS” (Institute of Genetics and Developmental Biology Chinese …, priority 2022, published 2026).
# Several values for one entry are separate records, joined by “and”; a condition that tells them apart may be missing. Equal values may be shown once. Entries after “also recorded” stand apart in the source; their conditions may differ.
# Tests used:
# [1] = tested on: cucumber leaf explants; experiment: Shoot regeneration of cucumber leaf explants; format: cell-based; conditions: 10 nM CsREF1 vs untreated control explants, 21 d
# Method: FIG. 46—Leaf explants were cultured on medium containing indicated concentrations of CsREF1. Shoot regeneration was scored at 21 d after incubation. The shoot regenerative capacity was represented by the number of regenerated shoots per explant. Data are mean±SD of three independent experiments. Bars show mean±SD. ***P<0.001, **P<0.01, *P<0.05 (Student's t-test).
# Leaf explants were cultured on a medium containing 10 nM CsREF1.
# [2] = tested on: recalcitrant soybean; experiment: Regeneration frequency / transformation efficiency of recalcitrant soybean; format: cell-based; conditions: 100 nM GmREF1 vs control in absence of GmREF1
# Method: (a) photos of control recalcitrant soybean and PRR+RER overexpressing (OE) recalcitrant soybean grown in the presence of 50 nM gmREF1, 100 nM GmREF1 or a vehicle only control (mock). (b) relative regeneration frequency of control recalcitrant soybean and PRR+RER overexpressing (OE) recalcitrant soybean grown in the presence of 50 nM GmREF1, 100 nM GmREF1 or a absence of REF1 (mock).
# [3] = tested on: Williams 82 soybean cultivar; experiment: Transformation efficiency of soybean (reporter gene A); format: cell-based
# Method: By “transformation efficiency” is meant the capacity of an organism to take up and incorporate exogenous DNA such as plasmids during transformation. Transformation efficiency is calculated by dividing the number of transformants by the total number of organisms subjected to the transformation process and multiplying this by 100 to obtain a percentage.
# The soybean gene A was transformed into the Williams 82 soybean cultivar and treated with 100 nM GmREF1 or a control. Gene A is a transcription factor gene which is used as a reporter for transformation efficiency. […]
# [4] = tested on: soybean explants; experiment: Shoot regeneration of soybean explants; format: cell-based, Glycine max
# Method: The relative regeneration capacity was represented by the relative frequency of explants with the regenerated shoots. Data are mean±SD of three independent experiments. Bars show mean±SD. ***P<0.001, **P<0.01, *P<0.05 (Student's t-test).
# Soybean explants were cultured on medium containing indicated concentrations of REF1. Shoot regeneration was scored 21 days after incubation.
# [5] = 100 nM GmREF1, three experiments
Sequence,shoot regenerative capacity [1],"regeneration frequency, increase [2]","Regenerated shoots carrying the reporter gene [3, 5]","Transformation efficiency (%) [3, 5]",transformation efficiency ([3]; 100 nM GmREF1 vs control),"relative regeneration frequency, increase ([4]; 10 nM GmREF1 vs absence)","relative regeneration frequency, increase ([4]; 20 nM GmREF1 vs absence)","relative regeneration frequency, increase ([4]; 50 nM GmREF1 vs absence)",shoot regeneration / regenerative capacity ([4]; presence vs absence of GmREF1)
YKLEGELQKRFEDLLKTTTDNDIPRGGNY (listed as Cucumis sativus) [CsREF1],significantly increased,,,,,,,,
GSVVVLQTKRKHDGGKGRDPQTN (Glycine max) [GmREF1],,~ 12 fold,177 and 156 and 200,64.1% and 73.9% and 72.9%,improves transformation efficiency; also recorded: greater,~ 2.1 fold,~ 2.8 fold,~ 3.8 fold,increases the regenerative capacity; also recorded: promotes shoot regeneration
